Measurements from patent US11352350B2, “IRAK degraders and uses thereof” (Kymera Therapeutics, Inc., priority 2018, dated 2022).
Like-named read-outs stand apart in the source and are kept apart here.

How the values were obtained:
IRAK4 [1] = biological target: T1, IRAK4 (Homo sapiens (Human), UniProt Q9NWZ3); test: hPBMC IRAK4 degradation flow assay; type: cell-based; conditions: hPBMC monocyte
Description: hPBMC IRAK4 degradation flow assay. Frozen PBMCs were thawed into RPMI with 10% FBS and allowed to recover. On the same day as thawed, PBMCs were plated in 96 well plate, 90 uL per well. Compound plates were prepared and a 10 point, 5-fold dilution was performed with a final DMSO concentration of 0.1%. Compound 10 μL per well was added, sealed and incubated at 37° C., 5% C02 for 20 hours (for 4 hour treatment, compounds were prepared and added the following day). […] Cells were spun down and washed two times with PBS/0.5% BSA, aspirated to pellet and placed into −80° C. freezer until further processing for flow. On the flow run day, PBMC plates were thawed and samples were transferred to PCR plates. The pre-perm staining cocktail (CD3 Ax488/CD8 BUV805/CD14 BUV395/CD16/56 BV711/CD19 BV785) was added to samples and incubated for 30 minutes at room temperature. Samples were washed two times and permeabilized with methanol for 10 minutes at 4° C. […] Samples were washed two times with PBS/BSA and run on a BD LSRFortessa. Mononuclear cells are gated by SSCH/FSCH and single cells. Monocytes are then gated through CD14 positive gate and lymphocytes are gated through CD14 negative gate. To determine absolute DC50s and max degradation values, MFI values were normalized to DMSO max and 20 hour 10 μM min control. Twenty hour dose curves were calculated using a 4 parameter logistic regression curve fit, no constraints (Top doses were removed if hook effects were observed and the bottom was constrained to 0).

IL-6 = IL-6 secretion in hPBMC using R848 stimulation; type: cell-based, human; conditions: Homo sapiens, 20 h
OCI-LY10 = test: CTG Cell Viability Assay - OCI-LY10; type: cell-based, human; conditions: Homo sapiens, OCI-LY10, 4 days, read-out: CTG Cell Viability Assay - OCI-LY10: Average external-IC50
How it was run: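 OCI-LY10 cells exposed to 9-dose, 1:3 dilutions from 10 μM top (0.2% DMSO) for 4 days at 37° C, 5% CO2. Viability by CellTiter-Glo luminescence; IC50 from three-parameter logistic fit.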

IRAK4 [2] = biological target: T1, IRAK4; test: IRAK4 MSD degradation in OCI-LY10; type: cell-based
How it was run: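 OCI-LY10 cells treated with 8-point 1:3 dilutions (top 1 to 10 μM final) for 4 to 24 h at 37° C. Lysate IRAK4 measured by MSD sandwich immunoassay (2H9 capture, Y279 detection, SULFO-TAG anti-rabbit). DC50 from three-parameter logistic fit.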

[3] = 20 hr, flow assay, read-out: IRAK4 degradation in hPBMC monocyte at 20 hr: Average external Abs DC50
[4] = 20 hrs, read-out: IRAK4 degradation in hPBMC monocyte: DC50
[5] = OCI-LY10, 4 hrs, read-out: IRAK4 MSD degradation in OCI-LY10 at 4 hrs: DC50

T1 sequence (Q9NWZ3 whole entry): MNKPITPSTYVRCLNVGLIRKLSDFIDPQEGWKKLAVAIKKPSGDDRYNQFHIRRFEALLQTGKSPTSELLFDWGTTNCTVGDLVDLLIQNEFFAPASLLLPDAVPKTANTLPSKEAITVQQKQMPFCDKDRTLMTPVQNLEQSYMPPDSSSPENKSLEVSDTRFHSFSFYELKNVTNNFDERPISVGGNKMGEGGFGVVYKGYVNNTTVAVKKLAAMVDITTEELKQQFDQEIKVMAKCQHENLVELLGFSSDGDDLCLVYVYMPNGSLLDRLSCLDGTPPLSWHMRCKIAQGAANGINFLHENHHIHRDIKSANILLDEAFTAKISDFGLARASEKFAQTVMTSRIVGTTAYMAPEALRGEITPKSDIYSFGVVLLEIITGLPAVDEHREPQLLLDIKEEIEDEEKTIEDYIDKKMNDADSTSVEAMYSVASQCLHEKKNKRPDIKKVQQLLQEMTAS

Structure (SMILES) | IC50 (IL-6; hPBMC, R848 as stim, t = 20 h) | IC50 (OCI-LY10; OCI-Ly10, 96 h) | DC50 (IRAK4 [1]; [4]) | DC50 (IRAK4 [2]; [5]) | other results
Cn1c(=O)n(C2CCC(=O)NC2=O)c2cccc(CCCC3CCN(Cc4ccc(C5N=C(NC(=O)c6cnn7ccc(N8C[C@H]9C[C@@H]8CO9)nc67)C(C(F)F)=N5)cc4)CC3)c21 (stereo partly shown) [I-428] | 1 to 10 nM |  |  |  | DC50 (IRAK4 [1]; [3]): < 10 nM
Cn1c(=O)n(C2CCC(=O)NC2=O)c2cccc(CCCOC[C@H]3CN(C[C@H]4CC[C@H](n5cc(NC(=O)c6cnn7ccc(N8CCOCC8)nc67)c(C(F)F)n5)CC4)CCO3)c21 (stereo partly shown) [I-430] | 1 to 10 nM |  |  |  | DC50 (IRAK4 [1]; [3]): < 10 nM
Cn1c(=O)n(C2CCC(=O)NC2=O)c2cccc(CCCN3CCOC4(CCN(C(=O)[C@H]5CC[C@H](n6cc(NC(=O)c7cnn8ccc(N9C[C@H]%10C[C@@H]9CO%10)nc78)c(C(F)F)n6)CC5)CC4)C3)c21 (stereo partly shown) [I-431] | < 1 nM |  |  |  | DC50 (IRAK4 [1]; [3]): < 10 nM
Cn1c(=O)n(C2CCC(=O)NC2=O)c2cccc(CN3CCC4(CC3)CCN(C(=O)c3ccc(C5N=C(NC(=O)c6cnn7ccc(N8C[C@H]9C[C@@H]8CO9)nc67)C(C(F)F)=N5)cc3)CC4)c21 (stereo partly shown) [I-432] | 1 to 10 nM |  |  |  | DC50 (IRAK4 [1]; [3]): < 10 nM
Cn1c(=O)n(C2CCC(=O)NC2=O)c2ccc(CCCN3CC4(CCN(C(=O)c5ccc(C6N=C(NC(=O)c7cnn8ccc(N9C[C@H]%10C[C@@H]9CO%10)nc78)C(C(F)F)=N6)cc5)CC4)C3)cc21 (stereo partly shown) [I-433] | < 1 nM |  |  |  | DC50 (IRAK4 [1]; [3]): < 10 nM
Cn1c(=O)n(C2CCC(=O)NC2=O)c2cccc(CCCN3CCOC4(CCN(C[C@H]5CC[C@H](n6cc(NC(=O)c7cnn8ccc(N9C[C@H]%10C[C@@H]9CO%10)nc78)c(C(F)F)n6)CC5)CC4)C3)c21 (stereo partly shown) [I-434] | < 1 nM |  |  |  | DC50 (IRAK4 [1]; [3]): < 10 nM
CN(CCCO[C@H]1C[C@H](Nc2cccc3c2C(=O)N(C2CCC(=O)NC2=O)C3=O)C1)C[C@H]1CC[C@H](n2cc(NC(=O)c3cnn4ccc(N5C[C@H]6C[C@@H]5CO6)nc34)c(C(F)F)n2)CC1 (stereo partly shown) [I-444] |  | < 50 nM | < 10 nM | 100 to 1000 nM | DC50 (IRAK4 [2]; OCI-LY10, 24 hrs, read-out: IRAK4 MSD degradation in OCI-LY10 at 24 hrs: DC50): < 10 nM
O=C1CCC(n2c3cccc(CCCN4CC5(CCN(C(=O)[C@H]6CC[C@H](n7cc(NC(=O)c8cnn9ccc(N%10C[C@H]%11C[C@@H]%10CO%11)nc89)c(C(F)F)n7)CC6)CC5)C4)c3c3cccnc32)C(=O)N1 (stereo partly shown) [I-445] |  | > 1000 nM | < 10 nM | 10 to 100 nM | 
Cn1c(=O)n(C2CCC(=O)NC2=O)c2cccc(C#CCCCOC[C@H]3CC[C@H](n4cc(NC(=O)c5cnn6ccc(N7C[C@H]8C[C@@H]7CO8)nc56)c(C(F)F)n4)CC3)c21 (stereo partly shown) [I-446] | 10 to 100 nM |  |  |  | 
Cn1c(=O)n(C2CCC(=O)NC2=O)c2cccc(CCCN3CC4CN(C(=O)[C@H]5CC[C@H](n6cc(NC(=O)c7cnn8ccc(N9C[C@H]%10C[C@@H]9CO%10)nc78)c(C(F)F)n6)CC5)CC4C3)c21 (stereo partly shown) [I-449] |  | > 1000 nM | < 10 nM | < 10 nM | 
Cn1c(=O)n(C2CCC(=O)NC2=O)c2cccc(CN3CC4(CCN(Cc5ccc(-n6cc(NC(=O)c7cnn8ccc(N9C[C@H]%10C[C@@H]9CO%10)nc78)c(C(F)F)n6)cc5)CC4)C3)c21 (stereo partly shown) [I-464] | 1 to 10 nM |  | 10 to 100 nM | 10 to 100 nM | 
CN(C[C@H]1CC[C@H](n2cc(NC(=O)c3cnn4ccc(N5C[C@H]6C[C@@H]5CO6)nc34)c(C(F)F)n2)CC1)C1CCN(Cc2cccc3c2n(C)c(=O)n3C2CCC(=O)NC2=O)CC1 (stereo partly shown) [I-465] | < 1 nM |  | < 10 nM | < 10 nM | 
Cn1c(=O)n(C2CCC(=O)NC2=O)c2cccc(CC3CC4(CCN(Cc5ccc(-n6cc(NC(=O)c7cnn8ccc(N9C[C@H]%10C[C@@H]9CO%10)nc78)c(C(F)F)n6)cc5)CC4)C3)c21 (stereo partly shown) [I-466] | 1 to 10 nM |  | < 10 nM | 100 to 1000 nM | 
Cn1c(=O)n(C2CCC(=O)NC2=O)c2cccc(CCC(=O)N3CCC4(CCN(C[C@H]5CC[C@H](n6cc(NC(=O)c7cnn8ccc(N9C[C@H]%10C[C@@H]9CO%10)nc78)c(C(F)F)n6)CC5)CC4)CC3)c21 (stereo partly shown) [I-467] | < 1 nM |  | < 10 nM | < 10 nM | 
Cn1c(=O)n(C2CCC(=O)NC2=O)c2cccc(CCOC3CC4(CCN(C[C@H]5CC[C@H](n6cc(NC(=O)c7cnn8ccc(N9C[C@H]%10C[C@@H]9CO%10)nc78)c(C(F)F)n6)CC5)CC4)C3)c21 (stereo partly shown) [I-469] | < 1 nM |  | < 10 nM | < 10 nM | 
Cn1c(=O)n(C2CCC(=O)NC2=O)c2cccc(CCCCN3CCN(C[C@H]4CC[C@H](n5cc(NC(=O)c6cnn7ccc(N8C[C@H]9C[C@@H]8CO9)nc67)c(C(F)F)n5)CC4)CC3)c21 (stereo partly shown) [I-471] | < 1 nM |  | < 10 nM | < 10 nM | 
Cn1c(=O)n(C2CCC(=O)NC2=O)c2cccc(CCCCN3CCN(C(=O)[C@H]4CC[C@H](n5cc(NC(=O)c6cnn7ccc(N8C[C@H]9C[C@@H]8CO9)nc67)c(C(F)F)n5)CC4)CC3)c21 (stereo partly shown) [I-472] | < 1 nM |  | < 10 nM | < 10 nM | 
Cn1c(=O)n(C2CCC(=O)NC2=O)c2ccc(C#CCOC3CCN(C[C@H]4CC[C@H](n5cc(NC(=O)c6cnn7ccc(N8C[C@H]9C[C@@H]8CO9)nc67)c(C(F)F)n5)CC4)CC3)cc21 (stereo partly shown) [I-483] |  |  |  |  | IC50 (OCI-LY10; 96 h): > 1000 nM; IC50 (IL-6; read-out: IL-6 Secretion in hPBMC, R848 as stim, t = 20 h: IC50): 1 to 10 nM
Cc1ccc(-c2nn([C@H]3CC[C@H](CN4CCC(OCCCc5cccc6c5n(C)c(=O)n6C5CCC(=O)NC5=O)CC4)CC3)cc2NC(=O)c2cnn3ccc(N4C[C@H]5C[C@@H]4CO5)nc23)nc1 (stereo partly shown) [I-484] |  | > 1000 nM | 100 to 1000 nM | 100 to 1000 nM | 
Cn1c(=O)n(C2CCC(=O)NC2=O)c2cccc(CCCOC3CCN(CCCCn4ncc(NC(=O)c5cnn6ccc(N7CCOCC7)nc56)c4C(F)F)CC3)c21 (stereo not shown) [I-488] |  | > 1000 nM | 100 to 1000 nM | 100 to 1000 nM | 
Cn1c(=O)n(C2CCC(=O)NC2=O)c2cccc(CCCN3CC4(CCN(C(=O)[C@H]5CC[C@H](n6cc(NC(=O)c7cnn8cccnc78)c(N7CCOCC7)n6)CC5)CC4)C3)c21 (stereo partly shown) [I-494] |  | > 1000 nM | 100 to 1000 nM | 100 to 1000 nM | 
O=C1CCC(n2c3cccc(CCCN4CC5(CCN(C[C@H]6CC[C@H](n7cc(NC(=O)c8cnn9ccc(N%10C[C@H]%11C[C@@H]%10CO%11)nc89)c(C(F)F)n7)CC6)CC5)C4)c3c3cccnc32)C(=O)N1 (stereo partly shown) [I-519] |  | 100 to 500 nM | 100 to 1000 nM | 10 to 100 nM | 
Cn1c(=O)n(C2CCC(=O)NC2=O)c2cccc(CC3CCN(c4ccc(CN5CCC(n6cc(NC(=O)c7cnn8ccc(N9C[C@H]%10C[C@@H]9CO%10)nc78)c(C(F)F)n6)CC5)cc4)CC3)c21 (stereo partly shown) [I-520] |  | > 1000 nM | < 10 nM | 10 to 100 nM | 
Cn1c(=O)n(C2CCC(=O)NC2=O)c2cccc(CCCOC3CCN(C[C@H]4CC[C@H](n5cc(NC(=O)c6cnn7ccc(N8C[C@H]9CC[C@@H](C8)O9)nc67)c(C(F)F)n5)CC4)CC3)c21 (stereo partly shown) [I-521] |  | > 1000 nM | < 10 nM | 10 to 100 nM | 
Cn1c(=O)n(C2CCC(=O)NC2=O)c2cccc(C#CCOC3CCN(C[C@H]4CC[C@H](n5cc(NC(=O)c6cnn7ccc(N8CCCOCC8)nc67)c(C(F)F)n5)CC4)CC3)c21 (stereo partly shown) [I-522] |  | 100 to 500 nM | < 10 nM | < 10 nM | 
Cn1c(=O)n(C2CCC(=O)NC2=O)c2cccc(C#CCC3CCN(C[C@H]4CC[C@H](n5cc(NC(=O)c6cnn7ccc(N8CCCOCC8)nc67)c(C(F)F)n5)CC4)CC3)c21 (stereo partly shown) [I-523] |  | > 1000 nM | < 10 nM | < 10 nM | 
Cn1c(=O)n(C2CCC(=O)NC2=O)c2cccc(CCCC3CCN(C[C@H]4CC[C@H](n5cc(NC(=O)c6cnn7ccc(N8CCCOCC8)nc67)c(C(F)F)n5)CC4)CC3)c21 (stereo partly shown) [I-524] |  | > 1000 nM | < 10 nM | < 10 nM | 
C[C@@H](C#Cc1cccc2c1n(C)c(=O)n2C1CCC(=O)NC1=O)OC1CCN(C[C@H]2CC[C@H](n3cc(NC(=O)c4cnn5ccc(N6C[C@H]7C[C@@H]6CO7)nc45)c(C(F)F)n3)CC2)CC1 (stereo partly shown) [I-544] |  | > 1000 nM | 100 to 1000 nM | 10 to 100 nM | 
C[C@H](CCc1cccc2c1n(C)c(=O)n2C1CCC(=O)NC1=O)OC1CCN(C[C@H]2CC[C@H](n3cc(NC(=O)c4cnn5ccc(N6C[C@H]7C[C@@H]6CO7)nc45)c(C(F)F)n3)CC2)CC1 (stereo partly shown) [I-557] |  | > 1000 nM | < 10 nM | < 10 nM | 
